Data: US10814018B2, “Isotopically labeled deoxy-glucose and derivatives thereof, compositions comprising them and uses thereof” (HADASIT MEDICAL RESEARCH SERVICE & DEVELOPMENT LTD., priority 2010, dated 2020)

Assays:
[1] = rats, intravenous, cited from earlier work
[2] = value taken as a consideration in the simulation; cited from earlier work
[3] = T1 of glucose 13C nuclei by inversion recovery pulse sequence (Varian NMR spectrometers, 7 T and 11.8 T); type: physicochemical
Protocol: The effect of glucose concentration on the T1 of its carbon positions was investigated at 7 T (FIG. 1A) and at 11.8 T (FIG. 1B) using Varian NMR spectrometers (The Netherlands). [U-^13C6, ^2H7]glucose was obtained from Cambridge Isotopes Laboratories (Andover, Mass., USA). The T1 of [U-^13C6, ^2H7]glucose ^13C's was measured using the inversion recovery pulse sequence. […] The mean difference between the T1s of the two concentrations was 6.9 s (P=2*10^−6, paired t-test) at 7 T. The mean difference in T1 at 11.8 T was 4.5 s (P=4*10^−5, paired t-test). The labels C1α and C1β (FIG. 1-3) mark the two signals of the glucose carbon at position 1 in the α and β anomers. The labels Ciα and Ciβ (FIG. 1-3) mark the two signals of the glucose carbon at position i in the α and β anomers.
The effect of the magnetic field strength on the T1 of glucose carbons was investigated at 7 T (FIG. 2, solid gray columns) and at 11.8 T (FIG. 2, diagonal pattern columns). [U-^13C6, ^2H7]glucose T1 at 400 mM was measured using the inversion recovery pulse sequence in the two spectrometers. […] The mean difference in T1 between the two fields was 2 s (P=6*10^−4, paired t-test).
To increase the signal of hyperpolarized deoxy-glucose and hyperpolarized glucose, stable isotope labeling by carbon-13 in all of the carbon positions was used. The effect of direct carbon-13 to carbon-13 bonding on the individual carbon-13 T1s was investigated to study the effect of these added dipolar interactions on T1 relaxation times. To this end, two compounds were investigated (both from Cambridge Isotopes Laboratories): [U-^13C6, ^2H7]glucose (FIG. 3, solid gray columns) and [^2H7]glucose (FIG. 3, diagonal pattern columns), both at 400 mM concentration. The T1 at 11.8 T was measured using the inversion recovery pulse sequence. While both compounds are fully deuterated, in the [U-^13C6, ^2H7]glucose molecule the carbon positions are 99% occupied by ^13C nuclei. In the [^2H7]glucose molecule, only ca. 1.1% of each of the carbon positions are occupied by ^13C nuclei (due to the natural abundance distribution of ^13C). The chance for having two directly bonded ^13C nuclei in this molecule is therefore 0.01% (negligible). Therefore this measurement was indicative of the T1 of singly ^13C labeled glucose. […] Therefore, it was deducted that direct bonding of additional ^13C nuclei led to a decrease in glucose ^13C T1s, due to the additional dipolar interactions.

[4] = Hyperpolarized glucose carbon-13 images in vivo at 3 T after tail vein bolus; design: species or system rats
Protocol: Hyperpolarized glucose images were recorded at 3 T in vivo. As depicted in FIG. 5, hyperpolarized [U-^13C6, ^2H7]glucose provided a high signal on carbon-13 images recorded in vivo. Normal rats were anesthetized, and hyperpolarized [U-^13C6, ^2H7]glucose was injected through the tail vein in a bolus of 12 s total duration. Images were recorded at 8, 12, and 20 s from the onset of the bolus injection (i.e. during and after the bolus). […] Arterial hyperpolarized media flow at this time is not likely, as the signal in the kidneys is not yet visible. […] The signal from the injected hyperpolarized media is extremely high with no background signal. At 12 s (FIG. 5B), at the end of the bolus injection, signal intensity in the main vasculature and the heart is still high, with substantial intensity observed in the kidneys (see indicating arrows). At 20 s from bolus initiation (FIG. 5C), signal from the heart is the most intense signal in the image, about 40% higher than signal in the vasculature and 20% higher than signal in the kidneys. Still, signal in the kidneys is clearly observed, as well as signal in other tissues such as the liver (see indicating arrows and color change). The hyperpolarized glucose signal observed in the heart at 20 s from bolus start is more intense than signal in the vasculature and the kidneys. […] In the anaesthetized rat, the only tissue that is expected to actively take up glucose is the myocardium, because under anesthesia it is the only active muscle. […] It is noted that heart anatomy cannot be discerned from these hyperpolarized images since the imaging time (1 s) averaged several heart beats (approximately 6 beats). However, glucose uptake by the myocardium can be determined at short time frames of the order of 20 s using gradient de-phasing of intravoxel moving spins. Using this methodology, hyperpolarized glucose or deoxyglucose signal from capillaries are diminished, while the signal of intracellular hyperpolarized glucose or deoxyglucose are imaged and indicate the level of glucose uptake in the tissue.

In the case of `O=CC[C@@H](O)[C@H](O)[C@H](O)CO` [2-deoxy-D-glucose], the heart rate ([1]; 0.25, 0.5, and 1 g/Kg) is listed as “no change”, the respiratory rate ([1]; 0.25, 0.5, and 1 g/Kg) is listed as “no change” and the arterial blood pressure ([1]; 0.25, 0.5, and 1 g/Kg, not in a dose dependent manner) is listed as “mean decrease”. For the same molecule, the death ([1]; dose of 0.25, 0.5, and 1 g/Kg) was “No death”.
For `CC(=O)C(=O)O` [pyruvate, [1-^13C]pyruvate], the T1 of pyruvate [2] is listed as 55 s.
With `[2H][13C]1(O)O[13C@]([2H])([13C]([2H])([2H])O)[13C@@]([2H])(O)[13C@]([2H])(O)[13C@@]1([2H])O` (stereo partly shown) [[U-^13C6, ^2H7]glucose] the “mean difference in T1 between the two fields (longer at 7 T)” value ([3]; 400 mM, 7 T vs 11.8 T, P=6*10^-4, paired t-test) was 2 s, the “T1 of glucose, individual values per carbon position and anomer” value ([3]; 7 T, 400 mM) was 8 to 13 s and the “mean difference between the T1s of the two concentrations (longer at 400 mM)” value ([3]; 7 T, 400 mM vs 4.03 M, P=2*10^-6, paired t-test) was 6.9 s. The “mean difference in T1 between the two concentrations (longer at 400 mM)” value ([3]; 11.8 T, 400 mM vs 4.03 M, P=4*10^-5, paired t-test) was 4.5 s, the “T1 of glucose 13Cs shorter than in [2H7]glucose (natural abundance 13C)” value ([3]; 11.8 T, 400 mM, P=1.4x10^-3, paired t-test) was 3.3 s and the “signal from the heart higher than signal in the kidneys” value ([4]; 20 s from bolus initiation) was about 20%. For the same molecule, the “signal from the heart higher than signal in the vasculature” value ([4]; 20 s from bolus initiation) was “about 40%” and the “signal on carbon-13 images recorded in vivo” value ([4]; normal anesthetized rats, tail vein bolus of 12 s) was “high signal”.
